What was measured:
Conditions in all cases: two-fold dilutions in MH broth, 16–18 hours at 37 °C; triplicates
P. aeruginosa ZEM1.A = test: MIC, clinical isolate; format: cell-based, Pseudomonas aeruginosa
P. aeruginosa ZEM9.A = test: MIC, clinical isolate; format: cell-based, Pseudomonas aeruginosa
P. aeruginosa PEJ2.6 = test: MIC, clinical isolate; format: cell-based, Pseudomonas aeruginosa
P. aeruginosa PEJ9.1 = test: MIC, clinical isolate; format: cell-based, Pseudomonas aeruginosa
S. aureus Newman (MSSA) = test: MIC; format: cell-based, Staphylococcus aureus
S. aureus COL (MRSA) = test: MIC; format: cell-based, Staphylococcus aureus
A. baumannii 19606 = test: MIC; format: cell-based, Acinetobacter baumannii
E. coli (W3110) = test: MIC; format: cell-based, Escherichia coli
K. pneumoniae s. = test: MIC; format: cell-based, Klebsiella pneumoniae

MIC ZEM1.A (P. aeruginosa ZEM1.A): 0.125 μg mL^–1
MIC ZEM9.A (P. aeruginosa ZEM9.A): 4 μg mL^–1
MIC PEJ2.6 (P. aeruginosa PEJ2.6): 0.5 μg mL^–1
MIC PEJ9.1 (P. aeruginosa PEJ9.1): 0.5 μg mL^–1
MIC S. aureus Newman (MSSA) (S. aureus Newman (MSSA)): >64 μg mL^–1
MIC S. aureus COL (MRSA) (S. aureus COL (MRSA)): >64 μg mL^–1
MIC A. baumannii 19606 (A. baumannii 19606): 0.125 μg mL^–1
MIC E. coli (W3110) (E. coli (W3110)): 0.125 μg mL^–1
MIC K. pneumoniae s. (K. pneumoniae s.): 1 μg mL^–1
Substance: Polymyxin B

Source: PMC5676089 (Chemical Science, 2017)
